According to PubChem BioAssay (NCI):
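Cultured in 96-well plates, cells were exposed to test compound for 48 hours across five concentrations. GI50 is the concentration that inhibits growth by half. TGI: total growth inhibition.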

Legend:
Experiment in all cases: inhibition of tumour cell growth, NCI panel, 48 h
[1] = test system: SF-268 CNS
[2] = test system: IGROV1 ovarian
[3] = test system: SR leukemia
[4] = test system: LOX IMVI melanoma
[5] = test system: CCRF-CEM leukemia
[6] = test system: SN12C renal
[7] = test system: RPMI-8226 leukemia
[8] = test system: EKVX NSCLC
[9] = test system: NCI-H23 lung
[10] = test system: OVCAR-4 ovarian
[11] = test system: SNB-75 CNS
[12] = test system: HCT-15 colon
[13] = test system: SF-539 CNS
[14] = test system: MCF7 breast
[15] = test system: HT29 colon
[16] = test system: UACC-62 melanoma
[17] = test system: U251 CNS
[18] = test system: NCI-H460 lung
[19] = test system: MDA-MB-231 breast
[20] = test system: HCT-116 colon
[21] = test system: ACHN renal
[22] = test system: MDA-MB-435
[23] = test system: OVCAR-5 ovarian
[24] = test system: MOLT-4 leukemia
[25] = test system: 786-0 renal
[26] = test system: A498 renal
[27] = test system: HCC-2998 colon
[28] = test system: SK-MEL-28 melanoma
[29] = test system: CAKI-1 renal
[30] = test system: HS 578T breast
[31] = test system: BT-549 breast
[32] = test system: SF-295 CNS
[33] = test system: M14 melanoma
[34] = test system: NCI/ADR-RES ovarian
[35] = test system: UACC-257 melanoma
[36] = test system: DU-145 prostate
[37] = test system: PC-3 prostate
[38] = test system: SW-620 colon
[39] = test system: NCI-H226 lung
[40] = test system: T-47D breast
[41] = test system: UO-31 renal
[42] = test system: RXF 393 renal
[43] = test system: NCI-H522 lung
[44] = test system: TK-10 renal
[45] = test system: COLO 205 colon
[46] = test system: SNB-19 CNS
[47] = test system: HOP-92 NSCLC
[48] = test system: HL-60(TB) leukemia
[49] = test system: SK-MEL-5 melanoma
[50] = test system: KM12 colon
[51] = test system: A549 NSCLC
[52] = test system: K-562 leukemia
[53] = test system: MALME-3M melanoma
[54] = test system: SK-MEL-2 melanoma
[55] = test system: OVCAR-8 ovarian
[56] = test system: SK-OV-3 ovarian
[57] = test system: HOP-62 NSCLC
[58] = test system: OVCAR-3 ovarian

## CSc1ccc(/C(=N/N=C(N)N)c2ccccc2)cc1
[1]
  GI50: 1.29 µM
  TGI: 16.1 µM
[2]
  GI50: 0.563 µM
  TGI: 12.2 µM
[3]
  GI50: 0.247 µM
  TGI: 2.58 µM
[4]
  GI50: 0.52 µM
  TGI: 8.78 µM
[5]
  GI50: 0.357 µM
  TGI: 19.2 µM
[6]
  GI50: 0.536 µM
  TGI: 12.5 µM
[7]
  GI50: 0.391 µM
  TGI: 5.46 µM
[8]
  GI50: 0.779 µM
  TGI: 18.1 µM
[9]
  GI50: 0.591 µM
  TGI: 14.9 µM
[10]
  GI50: 5.29 µM
  TGI: 27.2 µM
[11]
  GI50: 0.31 µM
  TGI: 3.27 µM
[12]
  GI50: 0.377 µM
  TGI: 12 µM
[13]
  GI50: 0.301 µM
  TGI: 0.931 µM
[14]
  GI50: 0.357 µM
  TGI: 9.46 µM
[15]
  GI50: 0.301 µM
  TGI: 2.88 µM
[16]
  GI50: 0.473 µM
  TGI: 15 µM
[17]
  GI50: 0.393 µM
  TGI: 11.3 µM
[18]
  GI50: 0.361 µM
  TGI: 10.7 µM
[19]
  GI50: 0.498 µM
  TGI: 11.8 µM
[20]
  GI50: 0.33 µM
  TGI: 11.4 µM
[21]
  GI50: 0.695 µM
  TGI: 12.6 µM
[22]
  GI50: 0.207 µM
  TGI: 0.478 µM
[23]
  GI50: 0.571 µM
  TGI: 15.4 µM
[24]
  GI50: 0.462 µM
  TGI: 13.4 µM
[25]
  GI50: 0.924 µM
  TGI: 15.8 µM
[26]
  GI50: 0.319 µM
  TGI: 1.66 µM
[27]
  GI50: 0.371 µM
  TGI: 1.57 µM
[28]
  GI50: 1.07 µM
  TGI: 20 µM
[29]
  GI50: 0.423 µM
  TGI: 10.9 µM
[30]
  GI50: 0.359 µM
  TGI: 12.9 µM
[31]
  GI50: 0.65 µM
  TGI: 3.18 µM
[32]
  GI50: 0.35 µM
  TGI: 11.5 µM
[33]
  GI50: 0.308 µM
  TGI: 1.42 µM
[34]
  GI50: 1.87 µM
  TGI: 11 µM
[35]
  GI50: 1.08 µM
  TGI: 11.8 µM
[36]
  GI50: 0.471 µM
  TGI: 13.3 µM
[37]
  GI50: 0.383 µM
  TGI: 10.9 µM
[38]
  GI50: 0.435 µM
  TGI: 15.6 µM
[39]
  GI50: 0.848 µM
  TGI: 18.6 µM
[40]
  GI50: 0.535 µM
  TGI: 15.1 µM
[41]
  GI50: 0.747 µM
  TGI: 12.6 µM
[42]
  GI50: 0.282 µM
  TGI: 0.781 µM
[43]
  GI50: 0.267 µM
  TGI: 0.996 µM
[44]
  GI50: 4.43 µM
  TGI: 20.4 µM
[45]
  GI50: 0.235 µM
  TGI: 0.549 µM
[46]
  GI50: 0.439 µM
  TGI: 14 µM
[47]
  GI50: 0.409 µM
  TGI: 5.32 µM
[48]
  GI50: 0.274 µM
  TGI: 0.883 µM
[49]
  GI50: 0.609 µM
  TGI: 2.85 µM
[50]
  GI50: 0.451 µM
  TGI: 14.2 µM
[51]
  GI50: 0.984 µM
  TGI: 14.2 µM
[52]
  GI50: 0.314 µM
  TGI: 11.5 µM
[53]
  GI50: 0.719 µM
  TGI: 13.5 µM
[54]
  GI50: 0.391 µM
  TGI: 12.7 µM
[55]
  GI50: 0.422 µM
  TGI: 11.2 µM
[56]
  GI50: 0.605 µM
  TGI: 15.1 µM
[57]
  GI50: 0.481 µM
  TGI: 13 µM

## C=C(C=O)[C@@H]1CC[C@]2(C)[C@H](C(=O)C=C3[C@H]4C[C@](C)(C(=O)OC)CC[C@]4(C)CC[C@]32C)[C@@]1(C)CCC#N
[3]
  GI50: 1.02 µM
  TGI: > 100 µM
[4]
  GI50: 1.34 µM
  TGI: 2.7 µM
[5]
  GI50: 0.483 µM
  TGI: > 100 µM
[7]
  GI50: 0.942 µM
  TGI: 5.04 µM
[15]
  GI50: 1.12 µM
  TGI: 2.87 µM
[24]
  GI50: 0.985 µM
  TGI: > 100 µM
[34]
  GI50: 1.88 µM
  TGI: 5.92 µM
[40]
  GI50: 0.899 µM
  TGI: > 100 µM
[48]
  GI50: 1.72 µM
  TGI: 5.93 µM
[52]
  GI50: 1.81 µM
  TGI: > 100 µM

## CC(Nc1c(C#N)cnc2ccc(-c3cncc(-c4n[nH]c(=O)o4)c3)cc12)c1ccccc1 (stereo not drawn)
[1]
  GI50: 2.62 µM
  TGI: 9.88 µM
[2]
  GI50: 1.55 µM
  TGI: 4.77 µM
[3]
  GI50: 2.79 µM
  TGI: 46.8 µM
[4]
  GI50: 1.94 µM
  TGI: 8.44 µM
[5]
  GI50: 3.7 µM
  TGI: > 100 µM
[6]
  GI50: 2.73 µM
  TGI: 13.7 µM
[7]
  GI50: 2.52 µM
  TGI: > 100 µM
[8]
  GI50: 2.46 µM
  TGI: 8.59 µM
[9]
  GI50: 3.12 µM
  TGI: 14.5 µM
[10]
  GI50: 2.84 µM
  TGI: 24.3 µM
[11]
  GI50: 2.15 µM
  TGI: 7.76 µM
[12]
  GI50: 3.06 µM
  TGI: 13.2 µM
[13]
  GI50: 2.53 µM
  TGI: 10.3 µM
[14]
  GI50: 2.64 µM
  TGI: 15.8 µM
[15]
  GI50: 3.66 µM
  TGI: 31.1 µM
[16]
  GI50: 1.96 µM
  TGI: 4.87 µM
[17]
  GI50: 2.36 µM
  TGI: 14.4 µM
[18]
  GI50: 3.2 µM
  TGI: 14.9 µM
[19]
  GI50: 2.15 µM
  TGI: 9.65 µM
[20]
  GI50: 2.65 µM
  TGI: 8.75 µM
[21]
  GI50: 3.57 µM
  TGI: 13.3 µM
[22]
  GI50: 3.59 µM
  TGI: 29.5 µM
[23]
  GI50: 3.6 µM
  TGI: 22.9 µM
[24]
  GI50: 3.02 µM
  TGI: 76 µM
[25]
  GI50: 2.44 µM
  TGI: 24.2 µM
[26]
  GI50: 1.77 µM
  TGI: 5.95 µM
[27]
  GI50: 3.48 µM
  TGI: 14.1 µM
[58]
  GI50: 1.92 µM
  TGI: 5.47 µM
[28]
  GI50: 3.4 µM
  TGI: 14.7 µM
[29]
  GI50: 3.69 µM
  TGI: 34.5 µM
[30]
  GI50: 1.9 µM
  TGI: 5.47 µM
[31]
  GI50: 1.35 µM
  TGI: 5.48 µM
[32]
  GI50: 2.64 µM
  TGI: 10.3 µM
[33]
  GI50: 3.87 µM
  TGI: 33.4 µM
[34]
  GI50: 20.2 µM
  TGI: 81.4 µM
[35]
  GI50: 4.48 µM
  TGI: 22.5 µM
[36]
  GI50: 2.98 µM
  TGI: 15.6 µM
[37]
  GI50: 3.25 µM
  TGI: > 100 µM
[38]
  GI50: 3.39 µM
  TGI: 18.9 µM
[39]
  GI50: 2.56 µM
  TGI: 13.8 µM
[40]
  GI50: 2.36 µM
  TGI: > 100 µM
[41]
  GI50: 1.77 µM
  TGI: 8.79 µM
[43]
  GI50: 3.31 µM
  TGI: 16.2 µM
[44]
  GI50: 3.83 µM
  TGI: 44.6 µM
[45]
  GI50: 2.85 µM
  TGI: 14.8 µM
[46]
  GI50: 2.77 µM
  TGI: 14.6 µM
[47]
  GI50: 2 µM
  TGI: 7.27 µM
[48]
  GI50: 8.19 µM
  TGI: 72.5 µM
[49]
  GI50: 1.68 µM
  TGI: 3.07 µM
[50]
  GI50: 3.65 µM
  TGI: 17.2 µM
[51]
  GI50: 3.64 µM
  TGI: 29.2 µM
[52]
  GI50: 4.42 µM
  TGI: > 100 µM
[53]
  GI50: 2.17 µM
  TGI: 9.36 µM
[54]
  GI50: 2.24 µM
  TGI: 6.66 µM
[55]
  GI50: 3.63 µM
  TGI: 32.9 µM
[56]
  GI50: 4.51 µM
  TGI: 28.3 µM
[57]
  GI50: 3.51 µM
  TGI: 24.7 µM
